Like-named read-outs stand apart in the source and are kept apart here. *1 amine or outer side, *2 acyl side, *3 side chain or, on linkers, in order; H or OH if unused. Where a SMILES comes first, the peptide text is derived from it. Bridges are numbered along the chain shown (N, C = ends). Roman numbers before positions name the chains, in order. [ ]: non-standard residue; d: D form. Actinocin(9to1) = Cc1c2oc3c(C)ccc(C(=O)[*:1])c3nc-2c(C(=O)[*:2])c(N)c1=O; NMeV = CN[C@H](C(=O)O)C(C)C; Sar = CNCC(=O)O
Experiments:
[1] = MTT cytotoxicity assay, normal oral cells together (mean); assay type: cell-based; conditions: human; mean of HGF, HPLF, HPC; read-out: CC50 Mean (D), human normal oral cells
Method: The cancer cell lines (HSC-2, HSC-3, HSC-4), as well as the normal cells (HGF, HPLF, and HPC), were cultured at 37°C in a humidified 5% CO2 incubator in DMEM medium enriched with streptomycin sulphate (100 μg/mL), 10% heat-inactivated FBS, and penicillin G (100 units/mL). For cytotoxicity testing, cells were then garnered using 0.25% trypsin–0.025% sodium edetate in a phosphate-buffered saline lacking Ca^2+/Mg^2+ [PBS (−)]. The cells were cultured in 96-well microplates at a cell count of 3 ×10^3 cells/100 μL. After 2 days, the exhausted medium was replaced with fresh medium containing the different concentrations of sample to be tested, in triplicate. The initial sample concentration was set at 5 mg/mL in DMSO. The first concentration examined was thus 500 μg/mL, which was then successively diluted 2-fold. In the wells assigned for control, equal volumes of the DMSO were added to the cells, where the toxic effects of DMSO could be subtracted. The cell growth in the incubator was continued for another 2 days. […] The concentration of cytotoxicity 50% (CC50) was determined from the dose-response curve.

[2] = test system: HSC-4 (human squamous carcinoma, derived from tongue); test: MTT cytotoxicity assay, HSC-4; assay type: cell-based; conditions: HSC-4, 48 h, read-out: CC50 HSC-4
Method: (§1) The cancer cell lines (HSC-2, HSC-3, HSC-4), as well as the normal cells (HGF, HPLF, and HPC), were cultured at 37°C in a humidified 5% CO2 incubator in DMEM medium enriched with streptomycin sulphate (100 μg/mL), 10% heat-inactivated FBS, and penicillin G (100 units/mL). For cytotoxicity testing, cells were then garnered using 0.25% trypsin–0.025% sodium edetate in a phosphate-buffered saline lacking Ca^2+/Mg^2+ [PBS (−)]. The cells were cultured in 96-well microplates at a cell count of 3 ×10^3 cells/100 μL. After 2 days, the exhausted medium was replaced with fresh medium containing the different concentrations of sample to be tested, in triplicate. The initial sample concentration was set at 5 mg/mL in DMSO. The first concentration examined was thus 500 μg/mL, which was then successively diluted 2-fold. In the wells assigned for control, equal volumes of the DMSO were added to the cells, where the toxic effects of DMSO could be subtracted. The cell growth in the incubator was continued for another 2 days. To determine the cell viability, the colorimetric MTT method was employed as described in our preceding article ([Orabi et al., 2021]). The concentration of cytotoxicity 50% (CC50) was determined from the dose-response curve. The mean CC50 value for each type of cell was calculated from triplicate assays ([Kantoh et al., 2010]).

[3] = test system: HSC-3 (human squamous carcinoma, derived from tongue); test: MTT cytotoxicity assay, HSC-3; assay type: cell-based; conditions: HSC-3, 48 h, read-out: CC50 HSC-3
Method: as §1

[4] = test system: Ca9-22 (human gingival squamous carcinoma cell line); test: MTT cytotoxicity assay, Ca9-22; conditions: for CC50: Homo sapiens, Ca9-22, 48 h, read-out: CC50 Ca9-22 (A)
Method: (§2) The cancer cell lines (HSC-2, HSC-3, HSC-4), as well as the normal cells (HGF, HPLF, and HPC), were cultured at 37°C in a humidified 5% CO2 incubator in DMEM medium enriched with streptomycin sulphate (100 μg/mL), 10% heat-inactivated FBS, and penicillin G (100 units/mL). For cytotoxicity testing, cells were then garnered using 0.25% trypsin–0.025% sodium edetate in a phosphate-buffered saline lacking Ca^2+/Mg^2+ [PBS (−)]. The cells were cultured in 96-well microplates at a cell count of 3 ×10^3 cells/100 μL. After 2 days, the exhausted medium was replaced with fresh medium containing the different concentrations of sample to be tested, in triplicate. The initial sample concentration was set at 5 mg/mL in DMSO. The first concentration examined was thus 500 μg/mL, which was then successively diluted 2-fold. In the wells assigned for control, equal volumes of the DMSO were added to the cells, where the toxic effects of DMSO could be subtracted. The cell growth in the incubator was continued for another 2 days. […] The concentration of cytotoxicity 50% (CC50) was determined from the dose-response curve. […] The changes in cell morphology were detected using light microscopy (EVOSfl; ThermoFisher Scientific, Waltham, MA, United States).
(§3) The following equation was used to calculate tumor specificity (TS): TS = average CC50 toward the normal cells (HGF + HPLF + HPC)/average CC50 toward the tumor cell lines (Ca9-22 + HSC-2 + HSC-3 + HSC-4), as indicated by D/B (Table 1). To compare the sensitivity of the cancer cells (Ca9-22) with that of the normal cells (HGF), being generated from the same tissue, the equation TS = CC50 against HGF/CC50 against Ca9-22 was used (see C/A in Table 1).

[5] = MTT cytotoxicity assay, HPC; assay type: cell-based; conditions: human, normal pulp cells (HPC), 2 days exposure
Method: For cytotoxicity testing, cells were then garnered using 0.25% trypsin–0.025% sodium edetate in a phosphate-buffered saline lacking Ca^2+/Mg^2+ [PBS (−)]. The cells were cultured in 96-well microplates at a cell count of 3 ×10^3 cells/100 μL. After 2 days, the exhausted medium was replaced with fresh medium containing the different concentrations of sample to be tested, in triplicate. The initial sample concentration was set at 5 mg/mL in DMSO. The first concentration examined was thus 500 μg/mL, which was then successively diluted 2-fold. In the wells assigned for control, equal volumes of the DMSO were added to the cells, where the toxic effects of DMSO could be subtracted. The cell growth in the incubator was continued for another 2 days. To determine the cell viability, the colorimetric MTT method was employed as described in our preceding article ([Orabi et al., 2021]). The concentration of cytotoxicity 50% (CC50) was determined from the dose-response curve. The mean CC50 value for each type of cell was calculated from triplicate assays ([Kantoh et al., 2010]). The changes in cell morphology were detected using light microscopy (EVOSfl; ThermoFisher Scientific, Waltham, MA, United States).

[6] = test system: HSC-2 (human squamous carcinoma, derived from tongue); test: MTT cytotoxicity assay, HSC-2; assay type: cell-based; conditions: HSC-2, 48 h, read-out: CC50 HSC-2
Method: as §1

[7] = test system: OSCC cell lines (Ca9-22 + HSC-2 + HSC-3 + HSC-4); test: MTT cytotoxicity assay, OSCC cell lines together (mean, TS, PSE); conditions: for CC50: Homo sapiens, read-out: CC50 Mean (B), human oral squamous cell carcinoma cell lines; for Type of growth inhibition (cytotoxic or cytostatic) from dose-response curve: OSCC cell lines and normal oral cells, Figure 1
Method: as §2, §3

[8] = MTT cytotoxicity assay, HGF; assay type: cell-based; conditions: human, normal gingival fibroblasts (HGF), normal cells, 2 days exposure
Method: as §1

[9] = MTT cytotoxicity assay, HPLF; assay type: cell-based; conditions: human, normal periodontal ligament fibroblasts (HPLF), normal cells, 2 days exposure
Method: as §1

Ca9-22 cells = test: Cell cycle analysis (PI staining, cell sorter) and cell morphology; assay type: cell-based, human; conditions: Ca9-22, 20 h, 1 µM
Method: The changes in cell morphology were detected using light microscopy (EVOSfl; ThermoFisher Scientific, Waltham, MA, United States).
Ca9-22 cells (3 × 10^4/mL, 10 mL) were added to a 10-cm dish and allowed to fully attach to the dish over the course of 48 h of incubation. […] These cells were mixed and then washed once with PBS (−). Both cell groups were fixed for 1 h on ice with 1% paraformaldehyde. Fixed cells were then washed twice with PBS (−) and treated with 400 μL of 200 μg/mL RNase A (which was preheated for 10 min at 100°C to inactivate DNase) to degrade RNA. The cells were then washed twice with PBS (−) and stained for 15 min with 0.01% propidium iodide (PI) in the presence of 0.01% NP-40 in PBS (−) to prevent cell aggregation. After filtering through Falcon® cell strainers (nylon mesh, pore size: 40 μm) (Corning, NY, United States) to remove aggregated cells, PI-stained cells were then subjected to cell sorting using (SH800 Series; SONY Imaging Products and Solutions Inc., Kanagawa, Japan), and finally analyzed with the Cell Sorter Software version 2.1.2.

Compound: O=c1[nH]cc(F)c(=O)[nH]1 [5-FU, 5-fluorouracil]
- CC50 at 2 days [1]: > 1000 µM
- CC50 ([2]; MTT, 2 days exposure): 182 µM
- CC50 ([3]; MTT, 2 days exposure): > 1000 µM
- CC50 [4]: 69.4 µM
- CC50 at 2 days [5]: > 1000 µM
- CC50 ([6]; MTT, 2 days exposure): 292 µM
- CC50 [7]: > 386 µM
- Type of growth inhibition (cytotoxic or cytostatic) from dose-response curve [7]: Cytostatic
- CC50 at 2 days [8]: > 1000 µM
- CC50 at 2 days [9]: > 1000 µM

Compound: Cc1c2oc3c(C)ccc(C(=O)N[C@@H]4C(=O)N[C@H](C(C)C)C(=O)N5CCC[C@H]5C(=O)N(C)CC(=O)N(C)[C@@H](C(C)C)C(=O)O[C@@H]4C)c3nc-2c(C(=O)N[C@@H]2C(=O)N[C@H](C(C)C)C(=O)N3CCC[C@H]3C(=O)N(C)CC(=O)N(C)[C@@H](C(C)C)C(=O)O[C@@H]2C)c(N)c1=O [Act.D, actinomycin D] (I: T[dV]P[Sar][NMeV] / II: T[dV]P[Sar][NMeV]; ester I:1-I:C, II:1-II:C; linker I:N-II:N via Actinocin(9to1))
- Morphological change of cells (Ca9-22 cells): cell shrinkage

Compound: COc1cccc2c1C(=O)c1c(O)c3c(c(O)c1C2=O)C[C@@](O)(C(=O)CO)C[C@@H]3O[C@H]1C[C@H](N)[C@H](O)[C@H](C)O1 [Doxorubicin, doxorubicin]
- CC50 at 2 days [1]: > 10 µM
- CC50 ([2]; MTT, 2 days exposure): < 0.078 µM
- CC50 ([3]; MTT, 2 days exposure): 0.16 µM
- CC50 [4]: 0.18 µM
- CC50 at 2 days [5]: > 10 µM
- CC50 ([6]; MTT, 2 days exposure): 0.09 µM
- CC50 [7]: < 0.13 µM
- Type of growth inhibition (cytotoxic or cytostatic) from dose-response curve [7]: Cytotoxic
- CC50 at 2 days [8]: > 10 µM
- CC50 at 2 days [9]: > 10 µM

Compound: N[C@@H](Cc1ccc(N(CCCl)CCCl)cc1)C(=O)O [Melphalan, melphalan]
- CC50 at 2 days [1]: > 180 µM
- CC50 [2]: 9.9 µM
- CC50 [3]: 14.1 µM
- TS (tumor selectivity) C/A ([4]; CC50 HGF / CC50 Ca9-22): 5.0
- CC50 [4]: 36.3 µM
- CC50 at 2 days [5]: 159 µM
- CC50 [6]: 11 µM
- CC50 [7]: 17.8 µM
- Type of growth inhibition (cytotoxic or cytostatic) from dose-response curve [7]: Cytotoxic
- CC50 at 2 days [8]: 180 µM
- CC50 at 2 days [9]: > 200 µM

— article PMC10830635, “In vitro cytotoxicity of Withania somnifera (L.) roots and fruits on oral squamous cell carcinoma cell lines: a study supported by flow cytometry, spectral, and computational investigations” (Frontiers in Pharmacology, 2024)
